From patent US20250353873A1, “COMPOUNDS AND METHODS FOR MODULATING APOE EXPRESSION” (Ionis Pharmaceuticals, Inc., priority 2024, published 2025)
Marks after values point to notes of the source that are not given here. Strand notation (5' to 3'): a small letter for the sugar, then the base; units joined by * are phosphorothioate-linked, units joined directly phosphodiester-linked; [ ] holds rarer units or linkages, { } end groups; capitals alone tell only the bases. e = 2'-O-(2-methoxyethyl) (MOE); k = constrained ethyl (cEt); [5mC] = 5-methylcytosine; d = 2'-deoxy (DNA)

How the values were obtained:
human APOE RNA [1] = test: Activity in APOE C57BL/6NTac-Apoeem7250 knock-in mice, single ICV bolus, 20 weeks (Example 13); format: in vivo; details: single ICV bolus 300 μg, 20 weeks post treatment, normalized to mouse Ppia
Method: Modified oligonucleotides described above were tested in the APOE C57BL/6NTac-Apoeem7250 knock-in mouse model described above.
APOE C57BL/6NTac-Apoeem7250 knock-in mice were divided into groups of 4 mice each. Each mouse received a single ICV bolus of 300 μg of modified oligonucleotide. A group of 2-4 mice received a single ICV bolus with PBS as a negative control.
Twenty weeks post treatment, mice were sacrificed and RNA was extracted from cortical brain tissue and spinal cord for quantitative real-time RT-PCR analysis of RNA expression of APOE using human primer probe set RTS3073 (described herein above). APOE RNA levels were normalized to mouse Ppia. Mouse Ppia was amplified using primer probe set m_cyclo24 (described herein above). Results are presented as percent human APOE RNA relative to the amount of human APOE RNA in PBS treated animals, (% control). Each experiment is identified in separate tables below.

human APOE RNA [2] = test: Dose-dependent inhibition of human APOE RNA in HepG2 cells, electroporation, 50,000 cells per well, RT-PCR normalized to GAPDH (Example 4, Tables 8-10); format: cell-based; details: HepG2, electroporation, 16-hour treatment
How it was run: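 HepG2 cells, 50,000 per well, electroporated with modified oligonucleotide at various concentrations. APOE RNA quantified by RT-PCR with human primer probe set RTS3073, normalized to GAPDH. Values are percent APOE RNA relative to untreated control cells.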

Substance	APOE RNA (% control) Cortex (human APOE RNA [1])	APOE RNA (% control) Spinal Cord (human APOE RNA [1])	APOE RNA (% UTC) (human APOE RNA [2]; 5 nM)	APOE RNA (% UTC) (human APOE RNA [2]; 13 nM)	APOE RNA (% UTC) (human APOE RNA [2]; 33 nM)	APOE RNA (% UTC) (human APOE RNA [2]; 82 nM)	APOE RNA (% UTC) (human APOE RNA [2]; 205 nM)	APOE RNA (% UTC) (human APOE RNA [2]; 512 nM)	APOE RNA (% UTC) (human APOE RNA [2]; 1,280 nM)	APOE RNA (% UTC) (human APOE RNA [2]; 3,200 nM)	APOE RNA (% UTC) (human APOE RNA [2]; 8,000 nM)	APOE RNA (% UTC) (human APOE RNA [2]; 20,000 nM)	IC50 (human APOE RNA [2]) [nM]
1757541: mixed MOE/cEt gapmer TTGGTGAATCTTTATTAA, sugar eeeekddddddddeeeee, linkages soossssssssssooss (eT*eTeGeG*kT*dG*dA*dA*dT*d[5mC]*dT*dT*dT*eAeTeT*eA*eA) [compound 1757541]	88 % control	80 % control	104	103	100	99	91	66	60	38	22	8	1790
1757544: mixed MOE/cEt gapmer TTGGTGAATCTTTATTAA, sugar ekeeeddddddddeeeee, linkages soossssssssssooss (eT*kTeGeG*eT*dG*dA*dA*dT*d[5mC]*dT*dT*dT*eAeTeT*eA*eA) [compound 1757544]	101 % control	96 % control	104	86	100	111	90	75	59	42	26	12	2180
1757551: mixed MOE/cEt gapmer TTGGTGAATCTTTATTAA, sugar eeekkddddddddeeeee, linkages soossssssssssooss (eT*eTeGkG*kT*dG*dA*dA*dT*d[5mC]*dT*dT*dT*eAeTeT*eA*eA) [compound 1757551]	93 % control	53 % control	91	248	88	55	52	41	35	29	14	9	430
1757554: mixed MOE/cEt gapmer TTGGTGAATCTTTATTAA, sugar kkeeeddddddddeeeee, linkages soossssssssssooss (kT*kTeGeG*eT*dG*dA*dA*dT*d[5mC]*dT*dT*dT*eAeTeT*eA*eA) [compound 1757554]	95 % control	68 % control	91	113	101	106	89	71	52	27	28	13	1570
1757556: mixed MOE/cEt gapmer TTGGTGAATCTTTATTAA, sugar eeeeeddddddddekkee, linkages soossssssssssooss (eT*eTeGeG*eT*dG*dA*dA*dT*d[5mC]*dT*dT*dT*eAkTkT*eA*eA) [compound 1757556]	99 % control	82 % control	92	93	98	103	101	65	71	60	35	13	3530
1757559: mixed MOE/cEt gapmer TTGGTGAATCTTTATTAA, sugar eeeekddddddddkeeee, linkages soossssssssssooss (eT*eTeGeG*kT*dG*dA*dA*dT*d[5mC]*dT*dT*dT*kAeTeT*eA*eA) [compound 1757559]	94 % control	69 % control	90	80	89	87	81	89	60	42	39	25	3110
1757561: mixed MOE/cEt gapmer TTGGTGAATCTTTATTAA, sugar eeekkddddddddkeeee, linkages soossssssssssooss (eT*eTeGkG*kT*dG*dA*dA*dT*d[5mC]*dT*dT*dT*kAeTeT*eA*eA) [compound 1757561]	92 % control	64 % control	96	191	240	104	130	71	45	38	35	12	2090
1757562: mixed MOE/cEt gapmer TTGGTGAATCTTTATTAA, sugar eeeekddddddddkkeee, linkages soossssssssssooss (eT*eTeGeG*kT*dG*dA*dA*dT*d[5mC]*dT*dT*dT*kAkTeT*eA*eA) [compound 1757562]	96 % control	88 % control	160	86	56	87	52	45	40	29	28	16	570
1757563: mixed MOE/cEt gapmer TTGGTGAATCTTTATTAA, sugar eeeekddddddddkekee, linkages soossssssssssooss (eT*eTeGeG*kT*dG*dA*dA*dT*d[5mC]*dT*dT*dT*kAeTkT*eA*eA) [compound 1757563]	93 % control	71 % control	95	103	84	94	76	67	54	41	17	8	1380
1757564: mixed MOE/cEt gapmer TTGGTGAATCTTTATTAA, sugar eeeekddddddddkeeke, linkages soossssssssssooss (eT*eTeGeG*kT*dG*dA*dA*dT*d[5mC]*dT*dT*dT*kAeTeT*kA*eA) [compound 1757564]	95 % control	69 % control	91	86	92	93	82	72	62	39	22	33	2210
1757565 (eA*e[5mC]eTeTkG*dG*dT*dG*dA*dA*dT*d[5mC]*dT*dT*dT*eAeTeT*eA*eA; antisense) [Compound 1757565]	82‡ % control	73‡ % control	95	108	76	84	89	64	49	30	55	22	2130
1757567 (eA*e[5mC]eTeTeG*dG*dT*dG*dA*dA*dT*d[5mC]*dT*dT*dT*kAeTeT*eA*eA; antisense) [Compound 1757567]	80 % control	65 % control	103	108	97	91	95	64	59	37	19	23	1820
